Source: ChEMBL document CHEMBL5390310, “Rapid PROTAC Discovery Platform: Nanomole-Scale Array Synthesis and Direct Screening of Reaction Mixtures” (ACS Med Chem Lett, 2023)
The source made the active and inactive calls. The calls are words filed in the database; no cut-off is given here.

Columns and labels:
HEK293 = experiment: Cytotoxicity against HEK293 cells assessed as cell viability by CellTiter-Glo based assay; format: toxicity; details: human
[1] = molecular target: T1, von Hippel-Lindau disease tumor suppressor/Bromodomain-containing protein 4 (Homo sapiens, UniProt O60885+P40337); experiment: Protac activity at VHL E3 ligase/BRD4 in HEK293 cells assessed as BRD4 degradation by HiBiT assay; format: cell-based
[2] = molecular target: T1, von Hippel-Lindau disease tumor suppressor/Bromodomain-containing protein 4; experiment: Protac activity at VHL E3 ligase/BRD4 in HEK293 cells assessed as BRD4 degradation by HiBiT assay relative to control; format: cell-based

T1 sequence (P40337 whole entry, looked up, other chains not shown): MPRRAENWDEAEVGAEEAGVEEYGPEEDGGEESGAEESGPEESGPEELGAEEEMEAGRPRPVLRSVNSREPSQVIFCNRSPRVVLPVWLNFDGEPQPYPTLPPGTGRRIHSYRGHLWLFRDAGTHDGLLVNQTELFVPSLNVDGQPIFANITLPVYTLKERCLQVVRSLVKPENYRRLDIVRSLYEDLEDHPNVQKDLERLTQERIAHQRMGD

Structure (SMILES)	Activity (HEK293)	Activity [1]	Activity [2] [%]
Cc1sc2c(c1C)C(c1ccc(Cl)cc1)=N[C@@H](CC(=O)O)c1nnc(C)n1-2	Non-Toxic		
Cc1sc2c(c1C)C(c1ccc(Cl)cc1)=N[C@@H](CC(=O)NCCCCCC(=O)O)c1nnc(C)n1-2	Non-Toxic		
Cc1ncsc1-c1ccc(CNC(=O)[C@@H]2C[C@@H](O)CN2C(=O)[C@@H](NC(=O)COCCOCCOCCNC(=O)C[C@@H]2N=C(c3ccc(Cl)cc3)c3c(sc(C)c3C)-n3c(C)nnc32)C(C)(C)C)cc1	Non-Toxic	Active	25
